Patent US8026245B2, “HIV replication inhibiting purine derivatives” (Janssen Pharmaceutica N.V., priority 2003, dated 2011)
Where two headings read alike, the source gives them in different places.

What was measured:
[1] = Method B: cytotoxicity in mock-infected MT-4 cells engineered with GFP under a constitutional promotor; assay type: cell-based; conditions: human; Method B; mock-infected MT-4 cells with GFP, fluorescence reduced by 50%; read-out: pCC50 (−logCC50) (converted)
Protocol: (§1) In these cells, engineered with GFP (and an HIV-specific promotor), ongoing HIV-infection was measured fluorometrically. Cytotoxicity is measured in the same cells, but engineered with GFP under a constitutional promotor. The infection (or inhibition thereof) of HIV infected cells and the fluorescence of mock-infected cells is assessed by the fluorescent GFP signal generated by the two above mentioned cell lines.
(§2) The 50% cytotoxic concentration (CC50 in μM) was defined as the concentration of compound that reduced fluorescence of the mock-infected cells by 50%.

[2] = tested on: HIV-1; conditions: for pSI (pEC50 − pCC50): Method B, selectivity index, ratio of CC50 to EC50
[3] = tested on: HIV-1; test: microbe, parasite or virus in culture; conditions: Human immunodeficiency virus 1, MT4, read-out: pEC50 (−logEC50) (converted)
[4] = tested on: mock-infected MT-4 cells; test: Method B: cytotoxicity in mock-infected MT-4 cells engineered with GFP under a constitutional promotor; assay type: cell-based
Protocol: as §1, §2

[5] = tested on: HIV-1; conditions: Method A
Protocol: An […] T4-cell line, MT-4, which was previously shown (Koyanagi et al., Int. J. Cancer, 36, 445-451, 1985) to be highly susceptible to and permissive for HIV infection, served as the target cell line. Inhibition of the HIV-induced cytopathic effect was used as the end point. The viability of both HIV- and mock-infected cells was assessed spectrophotometrically via the in situ reduction of 3-(4,5-dimethylthiazol-2-yl)-2,5-diphenyltetrazolium bromide (MTT). The 50% cytotoxic concentration (CC50 in M) was defined as the concentration of compound that reduced the absorbance of the mock-infected control sample by 50%. The percent protection achieved by the compound in HIV-infected cells was calculated by the following formula:
[formula] whereby (ODT)HIV is the optical density measured with a given concentration of the test compound in HIV-infected cells; (ODC)HIV is the optical density measured for the control untreated HIV-infected cells; (ODC)MOCK is the optical density measured for the control untreated mock-infected cells; all optical density values were determined at 540 nm. The dose achieving 50% protection according to the above formula was defined as the 50% effective concentration (EC50 in M). The ratio of CC50 to EC50 was defined as the selectivity index (SI). Method B

[6] = tested on: mock-infected MT-4 cells; assay type: cell-based
Protocol: An HIV-1 transformed T4-cell line, MT-4, which was previously shown (Koyanagi et al., Int. J. Cancer, 36, 445-451, 1985) to be highly susceptible to and permissive for HIV infection, served as the target cell line. Inhibition of the HIV-induced cytopathic effect was used as the end point. The viability of both HIV- and mock-infected cells was assessed spectrophotometrically via the in situ reduction of 3-(4,5-dimethylthiazol-2-yl)-2,5-diphenyltetrazolium bromide (MTT). The 50% cytotoxic concentration (CC50 in M) was defined as the concentration of compound that reduced the absorbance of the mock-infected control sample by 50%. The percent protection achieved by the compound in HIV-infected cells was calculated by the following formula:

CCN(C)C(=O)/C=C/c1cc(C)c(Oc2nc(Nc3ccc(C#N)cc3)nc3ncn(Cc4ccc(OC)cc4)c23)c(C)c1 [Compound 1]
CC50 [1]: > 25100 nM | pSI (pEC50 − pCC50) [2]: <−3.8 | EC50 [3]: 3.98 nM

COc1ccc(Cn2cnc3c(Nc4c(C)cc(/C=C/C#N)cc4OC)nc(Nc4ccc(C#N)cc4)nc32)cc1 [Compound 2]
CC50 [1]: 5010 nM | pSI (pEC50 − pCC50) [2]: −3.7 | EC50 [3]: 1 nM

COc1ccc(Cn2cnc3c(Nc4c(C)cc(/C=C/C#N)cc4C)nc(Nc4ccc(C#N)cc4)nc32)cc1 [Compound 3]
CC50 [1]: 1260 nM | pSI (pEC50 − pCC50) [2]: −2.6 | EC50 [3]: 3.16 nM

COc1ccc(Cn2cnc3nc(Nc4ccc(C#N)cc4)nc(Oc4c(C)cc(/C=C/C#N)cc4C)c32)cc1 [Compound 4]
CC50 [1]: 10000 nM | pSI (pEC50 − pCC50) [2]: −3.4 | EC50 [3]: 3.98 nM

CCN(C)C(=O)/C=C/c1cc(C)c(Oc2nc(Nc3ccc(C#N)cc3)nc3nc[nH]c23)c(C)c1 [Compound 5]
CC50 [1]: 5010 nM | pSI (pEC50 − pCC50) [2]: −3.2 | EC50 [3]: 3.16 nM

COc1cc(/C=C/C#N)cc(C)c1Nc1nc(Nc2ccc(C#N)cc2)nc2[nH]cnc12 [Compound 6]
CC50 [1]: 794 nM | pSI (pEC50 − pCC50) [2]: −2.9 | EC50 [3]: 1 nM

COc1ccc(Cn2cnc3c(Nc4c(C)cc(CCC#N)cc4C)nc(Nc4ccc(C#N)cc4)nc32)cc1 [Compound 13]
pCC50 (−logCC50) [4]: 5.2 | pEC50 (−logEC50) [2]: 8.2 | pSI (pEC50 − pCC50) [2]: −3.1

COc1ccc(Cn2cnc3c(Nc4c(C)cc(/C=C/C#N)cc4Cl)nc(Nc4ccc(C#N)cc4)nc32)cc1 [Compound 14]
pCC50 (−logCC50) [4]: 5.5 | pEC50 (−logEC50) [2]: 8.3 | pSI (pEC50 − pCC50) [2]: −2.8

COc1ccc(Cn2cnc3nc(Nc4ccc(C#N)cc4)nc(Oc4c(OC)cc(/C=C/C#N)cc4OC)c32)cc1 [Compound 19]
pCC50 (−logCC50) [4]: <4.6 | pEC50 (−logEC50) [2]: 9.2 | pSI (pEC50 − pCC50) [2]: <−4.6

COc1ccc(Cn2cnc3nc(Nc4ccc(C#N)cc4)nc(Oc4c(C)cc(/C=C/C(N)=O)cc4C)c32)cc1 [Compound 20]
pCC50 (−logCC50) [4]: 5.2 | pEC50 (−logEC50) [2]: 8.4 | pSI (pEC50 − pCC50) [2]: −3.2

COc1ccc(Cn2cnc3nc(Nc4ccc(C#N)cc4)nc(Oc4c(C)cc(/C=C/C(=O)N(C)C)cc4C)c32)cc1 [Compound 21]
pCC50 (−logCC50) [4]: 4.8 | pEC50 (−logEC50) [2]: 8.4 | pSI (pEC50 − pCC50) [2]: −3.6

Cc1cc(C)c(Oc2nc(Nc3ccc(C#N)cc3)nc3[nH]cnc23)c(C)c1 [Compound 23]
pEC50 (−logEC50) ([5]; MT-4 cells, HIV-infected, MTT, 50% protection): 8.2 M | pSI (pCC50-pEC50) ([5]; selectivity index, ratio of CC50 to EC50): <−3.6 | pCC50 (−logCC50) [6]: <4.6

COc1cc(OC)c(Nc2nc(Nc3ccc(C#N)cc3)nc3[nH]cnc23)c(OC)c1 [Compound 26]
pCC50 (−logCC50) [4]: 5.0 | pEC50 (−logEC50) [2]: 9.3 | pSI (pEC50 − pCC50) [2]: −4.3

Cc1cc(C#N)cc(C)c1Nc1nc(Nc2ccc(C#N)cc2)nc2[nH]cnc12 [Compound 29]
pCC50 (−logCC50) [4]: 4.9 | pEC50 (−logEC50) [2]: 8.7 | pSI (pEC50 − pCC50) [2]: −3.8

CCOc1cc(C)c(Nc2nc(Nc3ccc(C#N)cc3)nc3[nH]cnc23)c(C)c1 [Compound 30]
pCC50 (−logCC50) [4]: 4.8 | pEC50 (−logEC50) [2]: 8.8 | pSI (pEC50 − pCC50) [2]: −4.0

Cc1cc(OCC#N)cc(C)c1Nc1nc(Nc2ccc(C#N)cc2)nc2[nH]cnc12 [Compound 31]
pCC50 (−logCC50) [4]: <4.6 | pEC50 (−logEC50) [2]: 9.3 | pSI (pEC50 − pCC50) [2]: <−4.7

Cc1cc(CCC#N)cc(C)c1Nc1nc(Nc2ccc(C#N)cc2)nc2[nH]cnc12 [Compound 32]
pCC50 (−logCC50) [4]: 4.8 | pEC50 (−logEC50) [2]: 8.3 | pSI (pEC50 − pCC50) [2]: −3.5

Cc1cc(/C=C/C#N)cc(C)c1Oc1nc(Nc2ccc(C#N)cc2)nc2[nH]cnc12 [Compound 33]
pCC50 (−logCC50) [4]: 5.0 | pEC50 (−logEC50) [2]: 8.5 | pSI (pEC50 − pCC50) [2]: −3.5

Cc1cc(/C=C/C#N)cc(C)c1Nc1nc(Nc2ccc(C#N)cc2)nc2[nH]cnc12 [Compound 34]
pCC50 (−logCC50) [4]: 4.8 | pEC50 (−logEC50) [2]: 8.5 | pSI (pEC50 − pCC50) [2]: −3.7

COc1cc(/C=C/C#N)cc(OC)c1Oc1nc(Nc2ccc(C#N)cc2)nc2[nH]cnc12 [Compound 35]
pCC50 (−logCC50) [4]: 4.9 | pEC50 (−logEC50) [2]: 8.4 | pSI (pEC50 − pCC50) [2]: −3.5

Cc1cc(/C=C/C(=O)N(C)C)cc(C)c1Nc1nc(Nc2ccc(C#N)cc2)nc2[nH]cnc12 [Compound 37]
pCC50 (−logCC50) [4]: 5.4 | pEC50 (−logEC50) [2]: 8.1 | pSI (pEC50 − pCC50) [2]: −2.7

Cc1cc(/C=C/C#N)cc(C)c1Nc1nc(Nc2ccc(C#N)cc2)nc2ncn(C)c12 [Compound 44]
pCC50 (−logCC50) [4]: 4.7 | pSI (pEC50 − pCC50) [2]: 3.3

Cc1cc(C)c(Nc2nc(Nc3ccc(C#N)cc3)nc3c2ncn3C)c(C)c1 [Compound 45]
pCC50 (−logCC50) [4]: <4.6 | pEC50 (−logEC50) [2]: 9.2 | pSI (pEC50 − pCC50) [2]: >4.6

Cc1cc(C#N)cc(C)c1Nc1nc(Nc2ccc(C#N)cc2)nc2c1ncn2C [Compound 46]
pCC50 (−logCC50) [4]: <4.6 | pEC50 (−logEC50) [2]: 9.4 | pSI (pEC50 − pCC50) [2]: >4.8

CCn1cnc2c(Nc3c(C)cc(/C=C/C#N)cc3OC)nc(Nc3ccc(C#N)cc3)nc21 [Compound 48]
CC50 [1]: > 25100 nM | pSI (pEC50 − pCC50) [2]: >4.6 | EC50 [3]: 0.631 nM

COc1cc(/C=C/C#N)cc(C)c1Nc1nc(Nc2ccc(C#N)cc2)nc2c1ncn2C(C)C [Compound 49]
pCC50 (−logCC50) [4]: 5.5 | pEC50 (−logEC50) [2]: 9.0 | pSI (pEC50 − pCC50) [2]: 3.5

COc1cc(/C=C/C#N)cc(C)c1Nc1nc(Nc2ccc(C#N)cc2)nc2c1ncn2CCO [Compound 50]
pCC50 (−logCC50) [4]: 5.8 | pEC50 (−logEC50) [2]: 9.2 | pSI (pEC50 − pCC50) [2]: 3.4

COc1cc(/C=C/C#N)cc(C)c1Nc1nc(Nc2ccc(C#N)cc2)nc2c1ncn2CC#N [Compound 52]
CC50 [1]: 2000 nM | pSI (pEC50 − pCC50) [2]: 3.6 | EC50 [3]: 0.501 nM

COc1cc(/C=C/C#N)cc(Cl)c1Nc1nc(Nc2ccc(C#N)cc2)nc2[nH]cnc12 [Compound 53]
pCC50 (−logCC50) [4]: 6.1 | pEC50 (−logEC50) [2]: 8.7 | pSI (pEC50 − pCC50) [2]: 2.6

Cc1cc(/C=C/C#N)cc(Cl)c1Nc1nc(Nc2ccc(C#N)cc2)nc2[nH]cnc12 [Compound 54]
pCC50 (−logCC50) [4]: 5.5 | pEC50 (−logEC50) [2]: 8.7 | pSI (pEC50 − pCC50) [2]: 3.2

N#C/C=C/c1cc(Cl)c(Nc2nc(Nc3ccc(C#N)cc3)nc3[nH]cnc23)c(Cl)c1 [Compound 55]
pCC50 (−logCC50) [4]: 5.6 | pEC50 (−logEC50) [2]: 8.6 | pSI (pEC50 − pCC50) [2]: 3.0

CC(=CC#N)c1cc(C)c(Nc2nc(Nc3ccc(C#N)cc3)nc3[nH]cnc23)c(C)c1 [Compound 56]
pCC50 (−logCC50) [4]: <4.6 | pEC50 (−logEC50) [2]: 8.4 | pSI (pEC50 − pCC50) [2]: >3.8

C/C(=C\C#N)c1cc(C)c(Nc2nc(Nc3ccc(C#N)cc3)nc3c2ncn3C)c(C)c1 [Compound 57]
CC50 [1]: > 25100 nM | pSI (pEC50 − pCC50) [2]: >4.4 | EC50 [3]: 1 nM

CCC(=CC#N)c1cc(C)c(Nc2nc(Nc3ccc(C#N)cc3)nc3[nH]cnc23)c(C)c1 [Compound 58]
pCC50 (−logCC50) [4]: 5.1 | pEC50 (−logEC50) [2]: 8.3 | pSI (pEC50 − pCC50) [2]: 3.2

CCC(=CC#N)c1cc(C)c(Nc2nc(Nc3ccc(C#N)cc3)nc3c2ncn3C)c(C)c1 [Compound 59]
pCC50 (−logCC50) [4]: <4.6 | pEC50 (−logEC50) [2]: 8.5 | pSI (pEC50 − pCC50) [2]: >3.9

CCC(=CC#N)c1cc(C)c(Nc2nc(Nc3ccc(C#N)cc3)nc3c2ncn3CC#N)c(C)c1 [Compound 60]
pCC50 (−logCC50) [4]: 5.0 | pEC50 (−logEC50) [2]: 8.6 | pSI (pEC50 − pCC50) [2]: 3.6

CC(C#N)=Cc1cc(C)c(Nc2nc(Nc3ccc(C#N)cc3)nc3[nH]cnc23)c(C)c1 [Compound 62]
pCC50 (−logCC50) [4]: <4.6 | pEC50 (−logEC50) [2]: 8.6 | pSI (pEC50 − pCC50) [2]: >4.0

COc1cc(C=C(C)C#N)cc(C)c1Nc1nc(Nc2ccc(C#N)cc2)nc2[nH]cnc12 [Compound 63]
pCC50 (−logCC50) [4]: 5.1 | pEC50 (−logEC50) [2]: 8.4 | pSI (pEC50 − pCC50) [2]: 3.3

CC(C#N)=Cc1cc(C)c(Nc2nc(Nc3ccc(C#N)cc3)nc3c2ncn3C)c(C)c1 [Compound 64]
pCC50 (−logCC50) [4]: <4.6 | pEC50 (−logEC50) [2]: 9.3 | pSI (pEC50 − pCC50) [2]: >4.7

C/C(C#N)=C(/C)c1cc(C)c(Nc2nc(Nc3ccc(C#N)cc3)nc3[nH]cnc23)c(C)c1 [Compound 65]
pCC50 (−logCC50) [4]: 5.0 | pEC50 (−logEC50) [2]: 8.1 | pSI (pEC50 − pCC50) [2]: 3.1

COc1ccc(Cn2cnc3c(Nc4ccc(C#N)cc4)nc(Nc4c(C)cc(C#N)cc4C)nc32)cc1 [Compound 72]
CC50 [1]: > 25100 nM | pSI (pEC50 − pCC50) [2]: >3.9 | EC50 [3]: 3.16 nM

COc1ccc(Cn2cnc3c(Nc4ccc(C#N)cc4)nc(Nc4c(C)cc(/C=C/C#N)cc4C)nc32)cc1 [Compound 73]
CC50 [1]: > 25100 nM | pSI (pEC50 − pCC50) [2]: >3.7 | EC50 [3]: 5.01 nM
